In brackets after ≈: the same amount, converted by molar mass.
Assays:
[1] = tested on: spurge, white clover, annual bluegrass and crab grass; assay: Field study of herbicidal effect, % weed control; format: in vivo
Procedure: A hinokitiol formulation containing 32.4% of hinokitiol by weight was tested in a field study. The formulation also contained dispersing agent, water and emulsifier. The two concentrations tested contained 5% and 0.5% hinokitiol (w/w), and the spraying volume was 100 gallons per acre. Three replicate 1-square-foot plots were sprayed with the appropriate solutions, and the % weed control in each plot was recorded at 3, 7, 14 and 20 days after treatment. The main weeds in this study were spurge, white clover, annual bluegrass and crab grass.

[2] = tested on: Colletotrichum acutatum; assay: Spiral gradient dilution method, inhibition of mycelial growth; format: cell-based; details: PDA, 20° C., hinokitiol in acetone
Procedure: (§1) In this method, a potato dextrose agar (PDA) medium is plated with the test solution by means of a spiral plater, which applies the compound in a 2.5-log dilution in a continuous radial concentration gradient. Fungal inoculum in two replicates is then placed along radial lines across the gradient. […] EC50 values were calculated based on these measurements. The fungi evaluated were members of the following families Anamorphic Phyllachoraceae (Colletotrichum acutatum), Anamorphic Sclerotiniaceae (Botrytis cinerea), Mitosporic fungi (Verticillium dahlias; Microphomina sp.), and Oomycota (Phytophtora capsici). Hinokitiol (5 mg/mL) was dissolved in acetone, and acetone alone was also used as a control to check for non-specific inhibition.

[3] = tested on: Verticillium dahliae; assay: as above; format: cell-based; details: PDA, 20° C., hinokitiol in acetone
Procedure: as §1

[4] = tested on: Phytophtora capsici; assay: as above; format: cell-based; details: PDA, 20° C., hinokitiol in acetone
Procedure: as §1

[5] = tested on: Microphomina sp.; assay: as above; format: cell-based; details: PDA, 20° C., hinokitiol in acetone
Procedure: as §1

[6] = tested on: Penicillium; assay: Hinokitiol spiral PDA plates, growth after 2 days; format: cell-based; details: 2 days of incubation
Procedure: as §1
(§2) Another set of hinokitiol spiral PDA plates prepared as above were inoculated with plant pathogenic fungi from the genera Mucor, Rhizoctonia, Geotrichum, Phoma, and Penicillium.

[7] = tested on: Geotrichum; assay: Hinokitiol spiral PDA plates, growth after 2 days; format: cell-based; details: 2 days of incubation
Procedure: as §1, §2

[8] = tested on: Rhizoctonia; assay: Hinokitiol spiral PDA plates, growth after 2 days; format: cell-based; details: 2 days of incubation
Procedure: as §1, §2

[9] = tested on: Mucor; assay: Hinokitiol spiral PDA plates, growth after 2 days; format: cell-based; details: 2 days of incubation
Procedure: as §1, §2

[10] = tested on: Phoma; assay: Hinokitiol spiral PDA plates, growth after 2 days; format: cell-based; details: 2 days of incubation
Procedure: as §1, §2

[11] = Analysis of hinokitiol residue on green beans after sun exposure; format: physicochemical, green bean; details: for [hinokitiol] in the HPLC injection solution: green bean leaves
Procedure: The goal of this study was to know stability of hinokitiol on plant leaves, instead of vials, after sun exposure. The following procedure was used • 1. A 3.2% Hinokitiol formulation containing propylene glycol, nonphytotoxic ethoxylate fatty esters; butanol, EDTA, UV protection agent, 1% sodium hydroxide and water for a total of 100% was used. The total weight of each formulation was 20 grams. • 2. Spraying solution: 10 mL of 100-fold dilution of the above formulation. • 3. Green bean plants: 6 plants with 10-15 leaves. • 4. Two plants were evenly sprayed 10 mL solution. • 5. Three plants was stored in dark incubator (25° C.), another three plants was put on the parking lot with full sun exposure (28˜35° C.). • 6. After 6 h, leaves were cut and punched into the same size discs (Ø21 mm). Discs from sun-exposed green bean and darkness green bean were 118 and 129, respectively. • 7. Discs were ground in a mortar and transferred into a separation funnel. The mortar and pestle were sequentially washed with 2 N HCl and ethyl acetate. The hinokitiol was extracted three times (3×50 mL) by ethyl acetate under 2N HCl (100 mL). The organic phase was dried by anhydrous sodium sulfate. After filtration and evaporation, the organic phase gave out a residue. The residue was dissolved by ethanol (1.5 mL). This solution was directly used for HPLC analysis. Injection volume was 10 μL.
• Darkness: leaf disc 129 • Sun exposure: leaf disc 118 • Darkness: Peak area (AU): 50463 • Sun exposure: Peak Area (AU); 13197 • Standard line: y=66.367X-52.019 (R^2=0.9999, X=μg/ml of hinokitiol standard solution, 2 μL injection volume; y=peak area)
• [hinokitiol] from darkness=152 μg/mL*1.5 mL/129 Disc=1.77 μg/Disc • [hinokitiol] from sun exposure=40 μg/mL*1.5 mL/118 Disc =0.51 μg/Disc
• [hinokitiol] from sun exposure/[hinokitiol] from darkness=0.51/1.77=0.29

[12] = tested on: annual bluegrass (Poa annua); assay: Pot study, phytotoxicity and % weed control; format: in vivo
Procedure: (§3) A pot study was conducted to test the phytotoxicity of hinokitiol on both broadleaved and grass weed. Ten seeds of either chickweed (Stellaria media) or annual bluegrass (Poa annua) were planted in a plastic pot filled with potting mix. The 2-inch tall plants grown under growth lights (12-h light/12-h dark) at room temperature were sprayed with hinokitiol solutions containing 0.5, 1.0, 2.0, 3.0, 4.0 and 5.0 mg/mL hinokitiol in 50% ethanol. A solution of 50% ethanol without hinokitiol was used as a control treatment. The plants were kept at room temperature under growth lights and observed at two time points—4 and 14 days after treatment—for visual symptoms of phytotoxicity and % weed control.

[13] = tested on: chickweed (Stellaria media); assay: Pot study, phytotoxicity and % weed control; format: in vivo
Procedure: as §3

[14] = 0.5 mg/mL in 50% ethanol, 4 DAYS
[15] = 0.5 mg/mL in 50% ethanol, 14 DAYS
[16] = 1.0 mg/mL in 50% ethanol, 4 DAYS
[17] = 1.0 mg/mL in 50% ethanol, 14 DAYS
[18] = 2.0 mg/mL in 50% ethanol, 4 DAYS
[19] = 2.0 mg/mL in 50% ethanol, 14 DAYS
[20] = 3.0 mg/mL in 50% ethanol, 4 DAYS
[21] = 3.0 mg/mL in 50% ethanol, 14 DAYS
[22] = 4.0 mg/mL in 50% ethanol, 4 DAYS
[23] = 4.0 mg/mL in 50% ethanol, 14 DAYS
[24] = 5.0 mg/mL in 50% ethanol, 4 DAYS
[25] = 5.0 mg/mL in 50% ethanol, 14 DAYS

CC(C)c1cccc(=O)c(O)c1 [Hinokitiol, 4-isopropyl tropolone]
% weed control ([1]; 0.5% hinokitiol (w/w), 3 DAYS): 3.3% | % weed control ([1]; 0.5% hinokitiol (w/w), 7 DAYS): 3.7% | % weed control ([1]; 0.5% hinokitiol (w/w), 14 DAYS): 1.7% | % weed control ([1]; 0.5% hinokitiol (w/w), 20 DAYS): 3.0% | % weed control ([1]; 5.0% hinokitiol (w/w), 7 DAYS): 90.3% | % weed control ([1]; 5.0% hinokitiol (w/w), 14 DAYS): 88.3% | % weed control ([1]; 5.0% hinokitiol (w/w), 20 DAYS): 83.7% | % weed control ([1]; 5.0% hinokitiol (w/w), 100 gallons per acre, 3 DAYS): 86.7% | weeds controlled ([1]; formulation containing 5% (w/w) hinokitiol, one week after spraying): more than 90% | herbicidal effect on weeds ([1]; same solution at 10× lower concentration): negligible effect | EC50 [2]: 12 µg/mL (≈ 73.1 µM) | EC50 [3]: 11 µg/mL (≈ 67 µM) | EC50 [4]: 12 µg/mL (≈ 73.1 µM) | EC50 [5]: 11 µg/mL (≈ 67 µM) | inhibition of growth [6]: complete inhibition | inhibition of growth [7]: complete inhibition | inhibition of growth [8]: complete inhibition | inhibition of growth [9]: complete inhibition | inhibition of growth [10]: complete inhibition | Relative stability: [hinokitiol] from sun exposure/[hinokitiol] from darkness ([11]; 6 h): 0.29 | hinokitiol concentration on each disc of green beans ([11]; 6 h darkness, 25° C.): 1.77 μg/Disc | hinokitiol concentration on each disc of green beans ([11]; 6 h sun exposure, 28-35° C.): 0.51 μg/Disc | hinokitiol concentration per unit area (Disc) relative to that stored in the darkness at 25° C. ([11]; after 6 h sun exposure at 28-35° C.): 29% | [hinokitiol] in the HPLC injection solution ([11]; 6 h darkness, 25° C.): 152 µg/mL | [hinokitiol] in the HPLC injection solution ([11]; 6 h sun exposure, 28-35° C.): 40 µg/mL | time the residue on the plant would last ([11]; green bean plants): at least one day | Poa annua (% control) [12, 14]: 0% | Poa annua (% control) [12, 15]: 0% | Poa annua (% control) [12, 16]: 1% | Poa annua (% control) [12, 17]: 0% | Poa annua (% control) [12, 18]: 2% | Poa annua (% control) [12, 19]: 5% | Poa annua (% control) [12, 20]: 10% | Poa annua (% control) [12, 21]: 15% | Poa annua (% control) [12, 22]: 30% | Poa annua (% control) [12, 23]: 25% | Poa annua (% control) [12, 24]: 50% | Poa annua (% control) [12, 25]: 50% | Stellaria media (% control) [13, 14]: 1% | Stellaria media (% control) [13, 15]: 0% | Stellaria media (% control) [13, 16]: 2% | Stellaria media (% control) [13, 17]: 10% | Stellaria media (% control) [13, 18]: 10% | Stellaria media (% control) [13, 19]: 55% | Stellaria media (% control) [13, 20]: 95% | Stellaria media (% control) [13, 21]: 100% | Stellaria media (% control) [13, 22]: 98% | Stellaria media (% control) [13, 23]: 100% | Stellaria media (% control) [13, 24]: 100% | Stellaria media (% control) [13, 25]: 100%

Reference: patent US20090029856A1, “Hinokitiol As A Plant Pesticide” (priority 2007, published 2009)
